Reference: PubChem BioAssay AID2060510 (Molecular Pharmacology Branch, DTP, NCI, 2025)
One block for each compound: values may come before it.

Test system: 439559-082-T-J2-PDC spheroids viability
Experiment: Anticancer human tumor 439559-082-T-J2-PDC patient-derived colon adenocarcinoma cell line growth inhibition [GQUAD]
Settings: for IC50: curve of first compound; for viability, T/C: stronger effect = lower value
In short: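 Multi-cell-type spheroids of tumor cells with HUVEC and mesenchymal stem cells, treated with drug combinations. Concentrations descend in half-log steps from near clinical Cmax, or from 10 microM where Cmax is unknown; viability read-out.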

[1] = second compound 0.0316 µM, first compound 0.0316 µM
[2] = second compound 0.0316 µM, first compound 0.1 µM
[3] = second compound 0.0316 µM, first compound 0.316 µM
[4] = second compound 0.0316 µM, first compound 1 µM
[5] = second compound 0.0316 µM, first compound 3.16 µM
[6] = second compound 0.0316 µM, first compound 10 µM
[7] = second compound 0.1 µM, first compound 0.0316 µM
[8] = second compound 0.1 µM, first compound 0.1 µM
[9] = second compound 0.1 µM, first compound 0.316 µM
[10] = second compound 0.1 µM, first compound 1 µM
[11] = second compound 0.1 µM, first compound 3.16 µM
[12] = second compound 0.1 µM, first compound 10 µM
[13] = second compound 0.316 µM, first compound 0.0316 µM
[14] = second compound 0.316 µM, first compound 0.1 µM
[15] = second compound 0.316 µM, first compound 0.316 µM
[16] = second compound 0.316 µM, first compound 1 µM
[17] = second compound 0.316 µM, first compound 3.16 µM
[18] = second compound 0.316 µM, first compound 10 µM
[19] = second compound 1 µM, first compound 0.0316 µM
[20] = second compound 1 µM, first compound 0.1 µM
[21] = second compound 1 µM, first compound 0.316 µM
[22] = second compound 1 µM, first compound 1 µM
[23] = second compound 1 µM, first compound 3.16 µM
[24] = second compound 1 µM, first compound 10 µM
[25] = second compound 3.16 µM, first compound 0.0316 µM
[26] = second compound 3.16 µM, first compound 0.1 µM
[27] = second compound 3.16 µM, first compound 0.316 µM
[28] = second compound 3.16 µM, first compound 1 µM
[29] = second compound 3.16 µM, first compound 3.16 µM
[30] = second compound 3.16 µM, first compound 10 µM
[31] = second compound 10 µM, first compound 0.0316 µM
[32] = second compound 10 µM, first compound 0.1 µM
[33] = second compound 10 µM, first compound 0.316 µM
[34] = second compound 10 µM, first compound 1 µM
[35] = second compound 10 µM, first compound 3.16 µM
[36] = second compound 10 µM, first compound 10 µM
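Also: spheroids exposed to the agents for 7 days before readout.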
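For viability, T/C in this document: percent of luminescence signal in DMSO vehicle wells taken as 100% viability.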

Compound: CC(C)n1c(=O)n(C)c2cnc3cc(F)c(-c4ccc(OCCCN5CCCCC5)nc4)cc3c21 + CN(C)c1ccc(Nc2c3ccc(NC(=O)CCN4CCCC4)cc3nc3cc(NC(=O)CCN4CCCC4)ccc23)cc1
IC50 (second compound 0.0316 µM): > 10 µM
IC50 (second compound 0.1 µM): > 10 µM
IC50 (second compound 0.316 µM): > 10 µM
IC50 (second compound 1 µM): > 10 µM
IC50 (second compound 3.16 µM): > 10 µM
IC50 (second compound 10 µM): > 10 µM
viability, T/C [1]: 108%
viability, T/C [2]: 98.2%
viability, T/C [3]: 118%
viability, T/C [4]: 116%
viability, T/C [5]: 122%
viability, T/C [6]: 91.8%
viability, T/C [7]: 105%
viability, T/C [8]: 112%
viability, T/C [9]: 115%
viability, T/C [10]: 119%
viability, T/C [11]: 113%
viability, T/C [12]: 91.9%
viability, T/C [13]: 94.5%
viability, T/C [14]: 113%
viability, T/C [15]: 115%
viability, T/C [16]: 122%
viability, T/C [17]: 117%
viability, T/C [18]: 100%
viability, T/C [19]: 101%
viability, T/C [20]: 105%
viability, T/C [21]: 111%
viability, T/C [22]: 113%
viability, T/C [23]: 109%
viability, T/C [24]: 99.6%
viability, T/C [25]: 105%
viability, T/C [26]: 113%
viability, T/C [27]: 121%
viability, T/C [28]: 108%
viability, T/C [29]: 117%
viability, T/C [30]: 83.5%
viability, T/C [31]: 100%
viability, T/C [32]: 92%
viability, T/C [33]: 99%
viability, T/C [34]: 112%
viability, T/C [35]: 112%
viability, T/C [36]: 59.4%

IC50 (second compound 0.0316 µM): > 10 µM
IC50 (second compound 0.1 µM): > 10 µM
IC50 (second compound 0.316 µM): > 10 µM
IC50 (second compound 1 µM): 9.59 µM
IC50 (second compound 3.16 µM): 6.53 µM
IC50 (second compound 10 µM): 3.76 µM
Compound: CCCS(=O)(=O)Nc1ccc(F)c(C(=O)c2c[nH]c3ncc(-c4ccc(Cl)cc4)cc23)c1F + Cc1cnc(CNC(=O)c2c(=O)c3ccc(N4CCCN(C)CC4)nc3n3c2sc2ccccc23)cn1
viability, T/C [1]: 97.5%
viability, T/C [2]: 103%
viability, T/C [3]: 103%
viability, T/C [4]: 101%
viability, T/C [5]: 101%
viability, T/C [6]: 77.1%
viability, T/C [7]: 96.9%
viability, T/C [8]: 99.5%
viability, T/C [9]: 99.7%
viability, T/C [10]: 99.3%
viability, T/C [11]: 99.1%
viability, T/C [12]: 53.2%
viability, T/C [13]: 84.4%
viability, T/C [14]: 89.7%
viability, T/C [15]: 90%
viability, T/C [16]: 86.1%
viability, T/C [17]: 88.1%
viability, T/C [18]: 54%
viability, T/C [19]: 78.4%
viability, T/C [20]: 78.5%
viability, T/C [21]: 78%
viability, T/C [22]: 78.2%
viability, T/C [23]: 83.8%
viability, T/C [24]: 48.9%
viability, T/C [25]: 70.9%
viability, T/C [26]: 71.5%
viability, T/C [27]: 70.8%
viability, T/C [28]: 63.5%
viability, T/C [29]: 68.1%
viability, T/C [30]: 39.7%
viability, T/C [31]: 60.8%
viability, T/C [32]: 58.6%
viability, T/C [33]: 70.2%
viability, T/C [34]: 64.5%
viability, T/C [35]: 57.5%
viability, T/C [36]: 5.82%

Compound: CC1COCCN1c1cc(-c2ccnn2C)c2ccnc(-c3ccn[nH]3)c2n1 (stereo not drawn) + CN(C)c1ccc(Nc2c3ccc(NC(=O)CCN4CCCC4)cc3nc3cc(NC(=O)CCN4CCCC4)ccc23)cc1
IC50 (second compound 0.0316 µM): 0.237 µM
IC50 (second compound 0.1 µM): 0.261 µM
IC50 (second compound 0.316 µM): 0.224 µM
IC50 (second compound 1 µM): 0.248 µM
IC50 (second compound 3.16 µM): 0.221 µM
IC50 (second compound 10 µM): 0.229 µM
viability, T/C [1]: 97.9%
viability, T/C [2]: 72.7%
viability, T/C [3]: 41.9%
viability, T/C [4]: 34.6%
viability, T/C [5]: 35.3%
viability, T/C [6]: 28.8%
viability, T/C [7]: 104%
viability, T/C [8]: 74.4%
viability, T/C [9]: 43.1%
viability, T/C [10]: 32.9%
viability, T/C [11]: 30.9%
viability, T/C [12]: 21.5%
viability, T/C [13]: 97.1%
viability, T/C [14]: 80.7%
viability, T/C [15]: 36.7%
viability, T/C [16]: 30.3%
viability, T/C [17]: 30.2%
viability, T/C [18]: 24.2%
viability, T/C [19]: 89.6%
viability, T/C [20]: 89.1%
viability, T/C [21]: 39.5%
viability, T/C [22]: 34.3%
viability, T/C [23]: 32.6%
viability, T/C [24]: 26.4%
viability, T/C [25]: 90%
viability, T/C [26]: 75.1%
viability, T/C [27]: 38.9%
viability, T/C [28]: 28.6%
viability, T/C [29]: 30.1%
viability, T/C [30]: 28.8%
viability, T/C [31]: 92.9%
viability, T/C [32]: 75.8%
viability, T/C [33]: 40.4%
viability, T/C [34]: 27.8%
viability, T/C [35]: 37.1%
viability, T/C [36]: 25.1%

IC50 (second compound 0.0316 µM): 9.53 µM
IC50 (second compound 0.1 µM): > 10 µM
IC50 (second compound 0.316 µM): 6.48 µM
IC50 (second compound 1 µM): 3.09 µM
IC50 (second compound 3.16 µM): 1.91 µM
IC50 (second compound 10 µM): 0.665 µM
Compound: C#Cc1c(F)ccc2cc(O)cc(-c3ncc4c(N5CC6CCC(C5)N6)nc(OCC56CCCN5CC(F)C6)nc4c3F)c12 (stereo not drawn) + Cc1cnc(CNC(=O)c2c(=O)c3ccc(N4CCCN(C)CC4)nc3n3c2sc2ccccc23)cn1
viability, T/C [1]: 92.5%
viability, T/C [2]: 81.9%
viability, T/C [3]: 76%
viability, T/C [4]: 62.7%
viability, T/C [5]: 62.6%
viability, T/C [6]: 47.5%
viability, T/C [7]: 92.6%
viability, T/C [8]: 80.1%
viability, T/C [9]: 60.1%
viability, T/C [10]: 61.2%
viability, T/C [11]: 57.2%
viability, T/C [12]: 53%
viability, T/C [13]: 81.2%
viability, T/C [14]: 68.8%
viability, T/C [15]: 68.9%
viability, T/C [16]: 57.9%
viability, T/C [17]: 58.6%
viability, T/C [18]: 45.2%
viability, T/C [19]: 86.2%
viability, T/C [20]: 66.9%
viability, T/C [21]: 65.3%
viability, T/C [22]: 56.1%
viability, T/C [23]: 49.5%
viability, T/C [24]: 45.8%
viability, T/C [25]: 71.3%
viability, T/C [26]: 73.1%
viability, T/C [27]: 56.7%
viability, T/C [28]: 55.8%
viability, T/C [29]: 47.8%
viability, T/C [30]: 36.8%
viability, T/C [31]: 59.1%
viability, T/C [32]: 55.9%
viability, T/C [33]: 49.4%
viability, T/C [34]: 51.3%
viability, T/C [35]: 42.1%
viability, T/C [36]: 33.7%
